Measured values taken from patent US12473299B2, “Cross-linked nucleoside and nucleotide using same” (Osaka University, priority 2020, dated 2025).
Entries after “also recorded” stand apart in the source; their conditions may differ. [BANA] = cross-linked (bridged) nucleoside of the invention; l = locked nucleic acid (LNA); d = 2'-deoxy (DNA)

Test system: mice (C57BL/6J, male)
Assay: Toxicity reducing effect: serum AST/ALT and death in mice
Type: in vivo
Conditions: 20 mg/kg intraperitoneally
Experimental: The test oligonucleotides (20 mg/kg) shown in Table 45 were administered intraperitoneally to six-week-old mice (C57BL/6J, male) (5 mice/group). After 96 hours, blood was collected under inhalation anesthesia (isoflurane), and the mice were exsanguinated. Then, the activities of aspartate transaminase (AST) and alanine transaminase (ALT) in serum were measured using an automated analyzer (FUJI DRI-CHEM 4000V manufactured by FUJIFILM).

[1] = 5 mice/group, serum after 96 hours, Means ± SD

| Substance | Remarks (death of mice) (5 mice/group, 96 hours) | ALT [1] [IU/L] | AST [1] [IU/L] | increase in ALT and AST (after 96 hours, versus saline) |
| --- | --- | --- | --- | --- |
| 5′-d(^LG^^LT^^LT^t^g^c^c^a^c^c^^LC^^LT^^LA)-3′ (antisense GTTATGCCACCCTA; sugars from the 5' end l3 d8 l3, all phosphorothioate, methylation of C not given here) [(29), reference compound] | all of the five mice died; also recorded: All 5 died |  |  |  |
| 5′-d(^LG^T^T^a^t^g^c^c^a^c^c^^LC^T^^LA)-3′ (antisense GTTATGCCACCCTA; sugars from the 5' end l[BANA][BANA]ddddddddl[BANA]l, all phosphorothioate, methylation of C not given here) [(28), T: BANA-T3] |  | 36.8 ± 9.5 | 223.2 ± 102.6 | almost no increase in ALT and AST |
